# Data published in patent US11969402B2, “Compositions and methods for skin rejuvenation” (THE JOHNS HOPKINS UNIVERSITY, priority 2019, dated 2024).
# How the values were obtained:
# [1] = test system: wound beds; assay: Immunostaining of healing wounds; format: in vivo, mouse; settings: Tlr3−/− mice
# Description: (§1) Wound Induced Hair Neogenesis (WIHN). All experiments were followed with the present inventors' WIHN protocol^1,9. Briefly, hair was shaved and a 1.2 cm^2 full-thickness skin on the backs of 21-day old (telogen) male and female mice was removed by sterile scissors. A single treatment of RA (30 μl) (0.1 μg per mouse) (Millipore Sigma, R2625) and BMS493 (30 μl) (0.1 μg per mouse) (Cayman Chemical, #17418) was applied topically onto open wound on WD1 of Tlr3^−/− and WT mice, respectively. Poly (I:C) (50 μl) (5 μg per mouse) (Invivogen, tlrl-pic) was injected under the healed scab on WD3 of WT mice as described before^9,34. On WD20-24, numbers of regenerated hair follicles were visualized and quantified in the re-epithelialized skin by non-invasive confocal scanning laser microscopy (CSLM) (Caliber I.D., VIVASCOPE 1500) as published^1,9. As a vehicle (Control), ethanol (EtOH), dimethylsulfoxide (DMSO), or PBS was treated for RA, BMS493, and Poly (I:C), respectively.
# Immunofluorescence. […] Fluorescence images were observed by fluorescence microscopy (Leica microsystems), taken pictures with ×100 (low magnification) and ×200 (high magnification), and saved as image files.
# [2] = test system: wound tissues of Tlr3−/− mice; assay: Microarray gene ontology analysis of wound tissue; format: in vivo, mouse; settings: Tlr3−/− mice treated with RA
# Description: Microarray analysis. RNA isolated from keratinocytes with or without Poly (I:C) (GSE92646) and mouse wound tissues from wild type (C57BL/6NJ) and Tlr3^−/− with BMS493 and RA were submitted to the JHMI Deep Sequencing & Microarray core for Affymetrix® Human Exon 1.0ST and mouse microarray chip according to manufacturer's protocols. Raw gene expression signals in the form of Affymetrix CEL files were extracted and normalized with Partek® Genomics Suite™ software using the Robust Multichip Analysis (RMA) algorithm. Genes were ranked according to fold change of the intervention, and referred to as top or bottom induced if they are at the highest fold change (top) or lowest fold change (bottom). The significance of gene expression was measured by student's t-test analysis. These datasets generated during the current study are available in the NCBI GEO repository as listed above.
# [3] = test system: keratinocytes of Tlr3−/− mice; assay: Western blot of stem cell markers in keratinocytes of Tlr3-/- mice; format: cell-based, mouse; settings: keratinocytes or whole skin from Tlr3−/− mice
# Description: Adult keratinocytes isolation and cultures. For human keratinocytes, 3-mm skin biopsies were taken from areas of the occipital scalp through above IRB protocols using enzyme digestion method as described in the literature^30,31. For mouse keratinocytes, tails of adult mice were used and followed by the same protocol of human keratinocytes. Briefly, the skin fragments were incubated in 0.4% dispase II solution overnight at 4° C., allowing separation of epidermis from dermis. Then epidermis was incubated with 0.25% trypsin-EDTA (Lonza, Walkersville, MD) to isolate keratinocytes for 5 min at 37° C. Adult keratinocytes were maintained in KGM including defined growth factors (KGM-GOLD Bullet kit, #192060) (Lonza) and supplemented with 10 μM of ROCK inhibitor (Y-27632) (Cayman Chemical, #10005583) until use^32. For all in vitro experiments, primary keratinocytes were passaged at least once to eliminate contaminating other cells isolated from epidermis and used at passage 2-4 for human and passage 1-2 for mouse keratinocytes.
# BMS493 treatment. BMS493 pan-RARs antagonist (1 μM) was pre-treated into keratinocytes for an hour and cells were incubated with RA (0.1 μM and 0.5 μM for human and mouse keratinocytes, respectively) or Poly (I:C) (0.1 μg per ml for both human and mouse keratinocytes) for 48 hrs. At the end of the experiment, cells were harvested for RNA and protein extraction to do further analysis including qRT-PCR and western blot.
# Western blot analysis. Human and mouse keratinocytes were disrupted in M-PER lysis buffer (Thermo Fisher Scientific, #78501) containing protease inhibitors (Thermo Fisher Scientific, #87786) using ultrasonic homogenizer (20% power with 5 times every 2 seconds) to extract proteins. Then, protein concentrations were determined by BCA method (Thermo Fisher Scientific, #23225). Western blot procedures were followed by the protocol of NuPAGE system (Thermo Fisher Scientific). […] The signal intensity of protein was quantified using Image Lab software (Bio-Rad). […]
# [4] = test system: Aldh1a2, Aldh1a3; assay: qRT-PCR of Aldh1a2 and Aldh1a3 in mouse wounds; format: in vivo
# Description: as §1
# RNA isolation and quantitative real-time PCR (qRT-PCR). For cells, total RNA was isolated from cultured keratinocytes using RNeasy Mini Kit (Qiagen, Valencia, CA, #74106) and treated with DNase I (Qiagen, #79254) to eliminate genomic DNA. For tissue, total RNA was isolated by following the manual of Direct-zol™ RNA MiniPrep Plus kit (Zymo Research, R2073). The purity and concentration of RNAs were analyzed using a NanoDrop2000c (Thermo Fisher Scientific, ND-2000c). Following reverse transcriptase reactions using high-capacity RNA to cDNA kit (Life Technologies), qRT-PCR was performed to measure target genes using TaqMan probes and Fast reaction master mix reagents (Life Technologies). Relative expression of mRNAs was analyzed by the cycle of threshold (Ct) value of target genes and quantified by normalizing to ribosomal protein large P0 (RPLP0) for human keratinocytes and to β-Actin for mouse keratinocytes or tissues as housekeeping genes using the ΔΔCt method^48.
Compound,Krt15 immunostaining in wounds [1],gene ontology categories in microarray analysis [2],"levels of Krt19, Krt15 and activated β-catenin protein [3]",Aldh1a3 and Aldh1a2 induction in early wounds ([4]; Tlr3−/− mice),Aldh1a2 transcription during wound healing ([4]; WT mice),Aldh1a3 transcription during wound healing ([4]; WT mice)
"CC1=C(/C=C/C(C)=C/C=C/C(C)=C/C(=O)O)C(C)(C)CCC1 [RA, all-trans-retinoic acid]",induces prominent Krt15,substantial enrichment of gene ontology categories pertaining to development and morphogenesis,increased,–,–,–
Polyinosinic-polycytidylic acid [Poly (I:C)],–,–,–,neither is induced,did not show a similar pattern,induced
